Test system: Amaranthus palmeri (AMAPA)
Assay: Post-emergence greenhouse percent control of Amaranthus palmeri
Format: in vivo
Conditions: herbicide alone; for Observed control 7DAA: 7 days after application; for Observed control 14DAA: 14 days after application; for Observed control 21DAA: 21 days after application
Method: Seeds of Amaranthus palmeri (AMAPA) were sown in vero beach potting soil and grown in a greenhouse. The herbicides, alone and in combination, were applied post-emergence when the weeds were 3 to 4-inches along with adjuvants 2.5% v/v AMSOL® and 1% v/v AgriDex® using a spray TT110015 nozzle providing 15 gallons/acre. Percent control evaluations were performed at 7, 14, and 21 days after application.
Expected action was calculated by the Colby formula.

CS(=O)(=O)c1ccc(C(=O)C2C(=O)CCCC2=O)c([N+](=O)[O-])c1 [Mesotrione, mesotrione]
Observed control 7DAA (10 g ai/ha): 75% | Observed control 14DAA (10 g ai/ha): 63% | Observed control 21DAA (10 g ai/ha): 62%

O=c1cc(Cl)[nH]nc1-c1ccccc1 [Pyridafol, pyridafol]
Observed control 7DAA (2.5 g ai/ha): 0% | Observed control 14DAA (2.5 g ai/ha): 0% | Observed control 21DAA (2.5 g ai/ha): 0% | Observed control 7DAA (5 g ai/ha): 0% | Observed control 14DAA (5 g ai/ha): 0% | Observed control 21DAA (5 g ai/ha): 0% | Observed control 7DAA (10 g ai/ha): 0% | Observed control 14DAA (10 g ai/ha): 0% | Observed control 21DAA (10 g ai/ha): 0% | Observed control 7DAA (27 g ai/ha): 5% | Observed control 14DAA (27 g ai/ha): 2% | Observed control 21DAA (27 g ai/ha): 0% | Observed control 7DAA (57 g ai/ha): 17% | Observed control 14DAA (57 g ai/ha): 10% | Observed control 21DAA (57 g ai/ha): 3% | Observed control 7DAA (87 g ai/ha): 23% | Observed control 14DAA (87 g ai/ha): 15% | Observed control 21DAA (87 g ai/ha): 13% | Observed control 7DAA (117 g ai/ha): 23% | Observed control 14DAA (117 g ai/ha): 17% | Observed control 21DAA (117 g ai/ha): 7%

bicyclopyrone
Observed control 7DAA (10 g ai/ha): 72% | Observed control 14DAA (10 g ai/ha): 60% | Observed control 21DAA (10 g ai/ha): 57%

— patent publication US12096772B2, “Herbicidal compositions” (SYNGENTA CROP PROTECTION AG, priority 2022, dated 2024)
